IC50 data for 17 compounds are collected here from patent publication EP4752149A1, “OXYGEN-CONTAINING FUSED TRICYCLIC DERIVATIVE, AND PREPARATION METHOD THEREFOR AND USE THEREOF” (Tuojie Biotech (Shanghai) Co., Ltd., priority 2023, dated 2025).

The subject of the assay is Ovarian cancer cells (OVCAR3). The assay is described as follows: Inhibitory activity against ovarian cancer cells (OVCAR3), CTG cell viability. The format is cell-based. To be noted: Homo sapiens, OVCAR-3, 168 h, 7 days with compound. The method, then:
Ovarian cancer cells (OVCAR3) were cultured using an RPMI 1640 culture medium containing 10% FBS in a cell incubator (37 °C, 5% CO2). On day one, the cells were plated in a 384-well plate at a cell concentration of 800 cells/well and cultured overnight in an incubator. On day two, the cells were treated with compounds. The highest compound concentration was 10 µM and was diluted 3-fold to obtain 9 concentrations, and the final concentration of DMSO was 0.1%. After the cells were cultured in the incubator for another 7 days, the cell viability was tested using a CTG Cell Viability Detection Reagent (MCE); the testing method was consistent with the method provided by the kit. Data were processed using GraphPad Prism 8, and IC50 was calculated. [formula] X: the logarithm of the compound concentration; Y: inhibition%. Table 2. The IC50 (nM) of compounds of the present disclosure against OVCAR3
For `C[C@H]1COc2c(-c3nc(Nc4ccc(C(=O)N5CC[C@@H](N(C)C)C5)c(Cl)c4)ncc3Cl)cc(F)c3nc(C(C)(C)O)n1c23` [Example 38, (2-Chloro-4-((5-chloro-4-((S)-8-fluoro-2-(2-hydroxypropan-2-yl)-3-methyl-3,4-dihydro-5-oxa-1,2a-diazaacenaphthylen-6-yl)pyrimidin-2-yl)amino)phenyl)((R)-3-(dimethylamino)pyrrolidin-1-yl)methanone], the IC50 (usually the concentration that inhibits the measured activity by half) came out at 690 nM.

Regarding `CC(O)c1nc2c(F)cc(-c3nc(Nc4ccc(N5CCOCC5=O)cc4F)ncc3F)c3c2n1[C@@H](C)CO3` (stereo partly drawn) [Example 21, 4-(3-Fluoro-4-((5-fluoro-4-((3S)-8-fluoro-2-(1-hydroxyethyl)-3-methyl-3,4-dihydro-5-oxa-1,2a-diazaacenaphthylen-6-yl)pyrimidin-2-yl)amino)phenyl)morpholin-3-one], the IC50 amounted to 260 nM. On to `C[C@H]1COc2c(-c3nc(Nc4ccc(C(=O)N5CC[C@H](N(C)C)C5)cc4)ncc3Cl)cc(F)c3nc(C(C)(C)O)n1c23` [Example 40, (4-((5-Chloro-4-((S)-8-fluoro-2-(2-hydroxypropan-2-yl)-3-methyl-3,4-dihydro-5-oxa-1,2a-diazaacenaphthylen-6-yl)pyrimidin-2-yl)amino)phenyl)((S)-3-(dimethylamino)pyrrolidin-1-yl)methanone], for which the IC50 was 364 nM. For `C[C@H]1COc2c(-c3nc(Nc4ccc(C(=O)N5CC[C@@H](N(C)C)C5)cc4)ncc3Cl)cc(F)c3nc(C(C)(C)O)n1c23` [Example 42, (4-((5-Chloro-4-((S)-8-fluoro-2-(2-hydroxypropan-2-yl)-3-methyl-3,4-dihydro-5-oxa-1,2a-diazaacenaphthylen-6-yl)pyrimidin-2-yl)amino)phenyl)((R)-3-(dimethylamino)pyrrolidin-1-yl)methanone], the IC50 is 674 nM. With `C[C@H]1COc2c(-c3nc(Nc4ccc(N5CCOCC5=O)c(Cl)c4)ncc3Cl)cc(F)c3nc(C(C)(C)O)n1c23` [Example 25, (S)-4-(2-Chloro-4-((5-chloro-4-(8-fluoro-2-(2-hydroxypropan-2-yl)-3-methyl-3,4-dihydro-5-oxa-1,2a-diazaacenaphthylen-6-yl)pyrimidin-2-yl)amino)phenyl)morpholin-3-one], the IC50 is 409 nM. On to `C[C@H]1COc2c(-c3nc(Nc4ccc(N5CCOCC5=O)cc4)ncc3F)cc(F)c3nc(C(C)(C)O)n1c23` [Example 18, (S)-4-(4-((5-Fluoro-4-(8-fluoro-2-(2-hydroxypropan-2-yl)-3-methyl-3,4-dihydro-5-oxa-1,2a-diazaacenaphthylen-6-yl)pyrimidin-2-yl)amino)phenyl)morpholin-3-one], for which the IC50 was 103 nM. On to `C[C@H]1COc2c(-c3nc(Nc4ccc(N5CCOCC5=O)cc4F)ncc3C#N)cc(F)c3nc(C(C)(C)O)n1c23` [Example 13, (S)-4-(8-Fluoro-2-(2-hydroxypropan-2-yl)-3-methyl-3,4-dihydro-5-oxa-1,2a-diazaacenaphthylen-6-yl)-2-((2-fluoro-4-(3-oxomorpholino)phenyl)amino)pyrimidine-5-carbonitrile], for which the IC50 is 901 nM. `C[C@H]1COc2c(-c3nc(Nc4ccc(CC#N)cc4)ncc3Cl)cc(F)c3nc(C(C)(C)O)n1c23` [Example 29]: the concentration for half-maximal inhibition (IC50) came to 335 nM.

For the compound `C[C@H]1COc2c(-c3nc(Nc4ccc(N5CCC(N(C)C)CC5=O)cc4F)ncc3Cl)cc(F)c3nc(C(C)(C)O)n1c23` (stereo partly drawn) [Example 12, 1-(4-((5-Chloro-4-((S)-8-fluoro-2-(2-hydroxypropan-2-yl)-3-methyl-3,4-dihydro-5-oxa-1,2a-diazaacenaphthylen-6-yl)pyrimidin-2-yl)amino)-3-fluorophenyl)-4-(dimethylamino)piperidin-2-one], the IC50 came to 643 nM.

As for `C[C@H]1COc2c(-c3nc(Nc4ccc(N5CCOCC5=O)cc4)ncc3Cl)cc(F)c3nc(C(C)(C)O)n1c23` [Example 10, (S)-4-(4-((5-Chloro-4-(8-fluoro-2-(2-hydroxypropan-2-yl)-3-methyl-3,4-dihydro-5-oxa-1,2a-diazaacenaphthylen-6-yl)pyrimidin-2-yl)amino)phenyl)morpholin-3-one], the IC50 was determined as 230 nM. With `CNS(=O)(=O)c1ccc(Nc2ncc(F)c(-c3cc(F)c4nc(C(C)(C)O)n5c4c3OC[C@@H]5C)n2)c(F)c1` [Example 16, (S)-3-Fluoro-4-((5-fluoro-4-(8-fluoro-2-(2-hydroxypropan-2-yl)-3-methyl-3,4-dihydro-5-oxa-1,2a-diazaacenaphthylen-6-yl)pyrimidin-2-yl)amino)-N-methylbenzenesulfonamide], the IC50 is 222 nM. As to `C[C@H]1COc2c(-c3nc(Nc4ccc(S(C)(=N)=O)cc4)ncc3F)cc(F)c3nc(C(C)(C)O)n1c23` (stereo partly drawn) [Example 17, (4-((5-Fluoro-4-((S)-8-fluoro-2-(2-hydroxypropan-2-yl)-3-methyl-3,4-dihydro-5-oxa-1,2a-diazaacenaphthylen-6-yl)pyrimidin-2-yl)amino)phenyl)(methyl)sulfonimide], the IC50 amounted to 154 nM. The figure for `CNS(=N)(=O)c1ccc(Nc2ncc(Cl)c(-c3cc(F)c4nc(C(C)(C)O)n5c4c3OC[C@@H]5C)n2)c(F)c1` (stereo partly drawn) [Example 9, 4-((5-Chloro-4-((S)-8-fluoro-2-(2-hydroxypropan-2-yl)-3-methyl-3,4-dihydro-5-oxa-1,2a-diazaacenaphthylen-6-yl)pyrimidin-2-yl)amino)-3-fluoro-N-methylbenzenesulfonimide] is 752 nM; for `C[C@H]1COc2c(-c3nc(Nc4ccc(S(C)(=N)=O)cc4F)ncc3F)cc(F)c3nc(C(C)(C)O)n1c23` (stereo partly drawn) [Example 15, (3-Fluoro-4-((5-fluoro-4-((S)-8-fluoro-2-(2-hydroxypropan-2-yl)-3-methyl-3,4-dihydro-5-oxa-1,2a-diazaacenaphthylen-6-yl)pyrimidin-2-yl)amino)phenyl)(methyl)sulfonimide] it is 636 nM. `C[C@H]1COc2c(-c3nc(Nc4ccc(S(C)(=N)=O)cc4)ncc3Cl)cc(F)c3nc(C(C)(C)O)n1c23` (stereo partly drawn) [Example 19, (4-((5-Chloro-4-((S)-8-fluoro-2-(2-hydroxypropan-2-yl)-3-methyl-3,4-dihydro-5-oxa-1,2a-diazaacenaphthylen-6-yl)pyrimidin-2-yl)amino)phenyl)(methyl)sulfinamide]: the IC50 worked out at 276 nM.

On to `CCN1CCN(C(=O)c2ccc(Nc3ncc(Cl)c(-c4cc(F)c5nc(C(C)(C)O)n6c5c4OC[C@@H]6C)n3)cc2F)CC1` [Example 32, (S)-(4-((5-Chloro-4-(8-fluoro-2-(2-hydroxypropan-2-yl)-3-methyl-3,4-dihydro-5-oxa-1,2a-diazaacenaphthylen-6-yl)pyrimidin-2-yl)amino)-2-fluorophenyl)(4-ethylpiperazin-1-yl)methanone], for which the IC50 was 426 nM.

With `CNS(=O)(=O)c1ccc(Nc2ncc(Cl)c(-c3cc(F)c4nc(C(C)(C)O)n5c4c3OC[C@@H]5C)n2)cc1` [Example 5, (S)-4-((5-Chloro-4-(8-fluoro-2-(2-hydroxypropan-2-yl)-3-methyl-3,4-dihydro-5-oxa-1,2a-diazaacenaphthylen-6-yl)pyrimidin-2-yl)amino)-N-methylbenzenesulfonamide], the IC50 was found to be 89.9 nM.
